Results from PubChem BioAssay (NCI).
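Assay format: 96-well plates, 48-hour exposure. TGI denotes the concentration required for complete inhibition of growth.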

How the values were obtained:
Assay in all cases: NCI-60 cell line screen, 48 h
SW-620 colon = system: SW-620 colon
LOX IMVI melanoma = system: LOX IMVI melanoma
OVCAR-5 ovarian = system: OVCAR-5 ovarian
NCI-H522 lung = system: NCI-H522 lung
NCI-H23 lung = system: NCI-H23 lung
MDA-MB-435 = system: MDA-MB-435
TK-10 renal = system: TK-10 renal
MALME-3M melanoma = system: MALME-3M melanoma
HCT-15 colon = system: HCT-15 colon
MCF7 breast = system: MCF7 breast
SN12C renal = system: SN12C renal
SNB-75 CNS = system: SNB-75 CNS
U251 CNS = system: U251 CNS
SK-MEL-5 melanoma = system: SK-MEL-5 melanoma
UO-31 renal = system: UO-31 renal
SR leukemia = system: SR leukemia
HCT-116 colon = system: HCT-116 colon
HT29 colon = system: HT29 colon
HL-60(TB) leukemia = system: HL-60(TB) leukemia
HOP-62 NSCLC = system: HOP-62 NSCLC
UACC-257 melanoma = system: UACC-257 melanoma
COLO 205 colon = system: COLO 205 colon
OVCAR-4 ovarian = system: OVCAR-4 ovarian
MDA-N = system: MDA-N
MDA-MB-231 breast = system: MDA-MB-231 breast
HCC-2998 colon = system: HCC-2998 colon
NCI-H226 lung = system: NCI-H226 lung
IGROV1 ovarian = system: IGROV1 ovarian
OVCAR-8 ovarian = system: OVCAR-8 ovarian
DU-145 prostate = system: DU-145 prostate
K-562 leukemia = system: K-562 leukemia
BT-549 breast = system: BT-549 breast
T-47D breast = system: T-47D breast
NCI-H460 lung = system: NCI-H460 lung
SF-295 CNS = system: SF-295 CNS
NCI/ADR-RES ovarian = system: NCI/ADR-RES ovarian
KM12 colon = system: KM12 colon
SF-268 CNS = system: SF-268 CNS
786-0 renal = system: 786-0 renal
CAKI-1 renal = system: CAKI-1 renal
ACHN renal = system: ACHN renal
UACC-62 melanoma = system: UACC-62 melanoma
SK-MEL-28 melanoma = system: SK-MEL-28 melanoma
HS 578T breast = system: HS 578T breast
SNB-19 CNS = system: SNB-19 CNS
RPMI-8226 leukemia = system: RPMI-8226 leukemia
EKVX NSCLC = system: EKVX NSCLC
MOLT-4 leukemia = system: MOLT-4 leukemia
PC-3 prostate = system: PC-3 prostate
A498 renal = system: A498 renal

For CC(=O)OCC1OC(SC2=N/C(=C\c3ccc(Br)s3)C(=O)N2CN2CCOCC2)C(OC(C)=O)C(OC(C)=O)C1OC(C)=O (stereo not given), the TGI (SW-620 colon) was 38.9 µM, the TGI (LOX IMVI melanoma) was 26.8 µM and the TGI (OVCAR-5 ovarian) was 72.1 µM. It also gave a TGI (NCI-H522 lung) of 23.6 µM, a TGI (NCI-H23 lung) of 27.2 µM and a TGI (MDA-MB-435) greater than 100 µM. It also gave a TGI (TK-10 renal) of 34.8 µM, a TGI (MALME-3M melanoma) of 35.6 µM and a TGI (HCT-15 colon) of 49.1 µM. The TGI (MCF7 breast) was 33.8 µM, the TGI (SN12C renal) was 32.2 µM and the TGI (SNB-75 CNS) was 68.3 µM. The TGI (U251 CNS) was 32.2 µM, the TGI (SK-MEL-5 melanoma) was 33.5 µM and the TGI (UO-31 renal) was 29.4 µM. The TGI (SR leukemia) was 34.8 µM, the TGI (HCT-116 colon) was 28.3 µM and the TGI (HT29 colon) was 34.2 µM. For the same compound, the TGI (HL-60(TB) leukemia) was 12.8 µM, the TGI (HOP-62 NSCLC) was 56.6 µM and the TGI (UACC-257 melanoma) was 32.2 µM. For the same compound, the TGI (COLO 205 colon) was 37.6 µM, the TGI (OVCAR-4 ovarian) was greater than 100 µM and the TGI (MDA-N) was 47.7 µM. The TGI (MDA-MB-231 breast) was greater than 100 µM, the TGI (HCC-2998 colon) was 38.7 µM and the TGI (NCI-H226 lung) was 32.5 µM. For the same compound, the TGI (IGROV1 ovarian) was 46.9 µM, the TGI (OVCAR-8 ovarian) was 37 µM and the TGI (DU-145 prostate) was 30.6 µM. It also gave a TGI (K-562 leukemia) of 45.7 µM, a TGI (BT-549 breast) of 38.8 µM and a TGI (T-47D breast) of 91.8 µM. It also gave a TGI (NCI-H460 lung) of 38.6 µM, a TGI (SF-295 CNS) of 52 µM and a TGI (NCI/ADR-RES ovarian) of 44 µM. For the same compound, the TGI (KM12 colon) was 35.3 µM, the TGI (SF-268 CNS) was 81.9 µM and the TGI (786-0 renal) was 36.5 µM. The TGI (CAKI-1 renal) was 34.3 µM, the TGI (ACHN renal) was 46.2 µM and the TGI (UACC-62 melanoma) was 32.1 µM. For the same compound, the TGI (SK-MEL-28 melanoma) was 32.9 µM, the TGI (HS 578T breast) was greater than 100 µM and the TGI (SNB-19 CNS) was 46.7 µM. It also gave a TGI (RPMI-8226 leukemia) of 27 µM, a TGI (EKVX NSCLC) of 97.4 µM and a TGI (MOLT-4 leukemia) of 52.8 µM. It also gave a TGI (PC-3 prostate) of 54.5 µM and a TGI (A498 renal) of 46 µM.
